Blank lines part the entries; values can stand above or below the molecule they belong to.
How the values were obtained:
[1] = test system: hyperlipoidemia model of Goldenhamsters (blood plasma TC, TG, HDL-C, LDL-C); assay: Pharmacological test group 1: effects on blood lipid levels of Goldenhamsters in a hyperlipoidemia model; format: in vivo; conditions: for regulating effects on the levels of blood lipid (conclusion from table 2) / effect on HDL-C, in comparison with the results before administration (in words) / effect on TC, in comparison with the results before administration (in words) / effect on TG, in comparison with the results before administration (in words) / therapeutic effect compared with fenofibrate (conclusion from table 2): 40 mg/kg; for HDL-C, after administration / LDL-C, after administration / TC, after administration / TG, after administration: 40 mg/kg intragastric, 1 week, high-lipid feed continued, blood plasma, x±s, asterisks = P vs before administration; for effect on HDL-C, in comparison with the results before administration (in words) / effect on TC, in comparison with the results before administration (in words) / effect on TG, in comparison with the results before administration (in words): t test after vs before administration; for therapeutic effect compared with fenofibrate (conclusion from table 2): fenofibrate 40 mg/kg
From the text: Animals: 134 male Goldenhamsters, aged 8 weeks, body weight 80-100 g, provided by Vital River Laboratories, Beijing. […] Kits: The kits for total cholesterol (TC), triglyceride (TG), and high density lipoprotein cholesterol (HDL-C) were provided by SYSMEX, and the kits for low density lipoprotein cholesterol (LDL-C) were provided by Shanghai Kehua Bio-engineering Co., Ltd. Apparatus: SYSMEX Automatic Biochemistry Analyzer, Bechman centrifuge, Setoris balance. The animals were acclimatized and fed for 1 week, ad lib, light cycle was 10 h/14 h, and then feeds with high lipid content were fed to the animals (formulation: 0.3% cholesterol, 20% palm oil, and 79.7% basic feeds). The animals were fed for 10 days, and were fasted at 4:00 pm on the 10th day (fasted for 16 h). On the 11th day, the animals were anaesthetized with ethyl ether, weighted, and then 0.5 ml blood was collected from vena orbitalis posterior. The blood was anticoagulated with heparin, and was centrifugated at 5000 rpm for 10 min. The blood plasma was taken, and the levels of TC, TG, HDL-C, and LDL-C in blood plasma were determined using automatic biochemistry analyzer. The animals were acclimatized and fed for 1 week, ad lib, light cycle was 10 h/14 h, and then feeds with high lipid content were fed to the animals (formulation: 0.3% cholesterol, 20% palm oil, and 79.7% basic feeds). The animals were fed for 2 weeks, and were fasted at 4:00 pm on the […] (fasted for 16 h). On the 22nd day, the animals were anaesthetized with ethyl ether, weighted, and then 0.5 ml blood was collected from vena orbitalis posterior. The blood was anticoagulated with heparin, and was centrifugated at 5000 rpm for 10 min. The blood plasma was taken, and the levels of TC, TG, HDL-C, and LDL-C in blood plasma were determined using automatic biochemistry analyzer. […] During the administration, feeds with high lipid content were continuously fed to the animals. The animals were fed for 1 week, and were fasted at 4:00 pm on the 7th day. On the 8th day, the animals were anaesthetized with ethyl ether, weighted, and then 0.5 ml blood was collected from vena orbitalis posterior. The blood was anticoagulated with heparin, and was centrifugated at 5000 rpm for 10 min. The blood plasma was taken, and the levels of TC, TG, HDL-C, and LDL-C in blood plasma were determined using automatic biochemistry analyzer. The results were represented by x±s, and t test was employed for comparing the results obtained before and after administration.

[2] = Solubility in water (remark on the test drugs); format: physicochemical; conditions: formulated with 20% solutol
[3] = test system: hyperlipoidemia model of Goldenhamsters (blood plasma TC, HDL-C, LDL-C); assay: Pharmacological test group 2: effects on blood lipid levels of Goldenhamsters in hyperlipoidemia model; format: in vivo; conditions: for HDL-C, after administration / LDL-C, after administration / TC, after administration: 40 mg/kg intragastric, 1 week, high-lipid feed continued, asterisks = P vs before administration; for HDL-C, after administration / LDL-C, after administration / TC, after administration / HDL-C, before administration / LDL-C, before administration / TC, before administration: blood plasma, x±s; for HDL-C, before administration / LDL-C, before administration / TC, before administration: baseline of the group before administration, high-lipid feed 2 weeks, 6 animals
From the text: Animals: 120 male Goldenhamsters, aged 8 weeks, body weight 80-100 g, provided by Vital River Laboratories, Beijing.
Kits: The kits for total cholesterol (TC) and high density lipoprotein cholesterol (HDL-C) were provided by SYSMEX, and the kits for low density lipoprotein cholesterol (LDL-C) were provided by Shanghai Kehua Bio-engineering Co., Ltd.
Apparatus: SYSMEX Automatic Biochemistry Analyzer, Bechman centrifuge, Setoris balance.
The animals were acclimatized and fed for 1 week, ad lib, light cycle was 10 h/14 h, and then feeds with high lipid content were fed to the animals (formulation: 0.3% cholesterol, 20% palm oil, and 79.7% basic feeds). The animals were fed for 2 weeks, and were fasted at 4:00 pm on the 14th day (fasted for 16 h). On the 15th day, the animals were anaesthetized with ethyl ether, weighted, and then 0.5 ml blood was collected from vena orbitalis posterior. The blood was anticoagulated with heparin, and was centrifugated at 5000 rpm for 10 min. The blood plasma was taken, and the levels of TC, HDL-C, and LDL-C in blood plasma were determined using automatic biochemistry analyzer.
During the administration, feeds with high lipid content were continuously fed to the animals. The animals were fed for 1 week, and were fasted at 4:00 pm on the 7th day. On the 8th day, the animals were anaesthetized with ethyl ether, weighted, and then 0.5 ml blood was collected from vena orbitalis posterior. The blood was anticoagulated with heparin, and was centrifugated at 5000 rpm for 10 min. The blood plasma was taken, and the levels of TC, HDL-C, and LDL-C in blood plasma were determined using automatic biochemistry analyzer.
The results were represented by x±s, and t test was employed for comparing the results obtained before and after administration.

[4] = 40 mg/kg, t test after vs before administration

SMILES: CC(C)OC(=O)C(C)(C)Oc1ccc(C(F)(F)c2ccc(F)cc2)cc1 [HS003-006, Isopropyl 2-(4-((4-fluorophenyl)difluoromethyl)phenoxy)-2-methylpropionate]
regulating effects on the levels of blood lipid (conclusion from table 2) [1]: tend to the effects of significantly decreasing TG, TC, and LDL-C | HDL-C, after administration [1]: 3.64 ± 0.31 | LDL-C, after administration [1]: 1.02 ± 0.27 | TC, after administration [1]: 8.96 ± 0.77 | TG, after administration [1]: 1.06 ± 0.29 | effect on HDL-C, in comparison with the results before administration (in words) [1]: increases | effect on TC, in comparison with the results before administration (in words) [1]: significantly decreases | effect on TG, in comparison with the results before administration (in words) [1]: significantly decreases

SMILES: CC(C)OC(=O)C(C)(C)Oc1ccc(C(F)(F)c2ccc(C(F)(F)F)cc2)cc1 [HS003-007, Isopropyl 2-(4-((4-trifluoromethylphenyl)difluoromethyl)phenoxy)-2-methylpropionate]
regulating effects on the levels of blood lipid (conclusion from table 2) [1]: tend to the effects of significantly decreasing TG, TC, and LDL-C | HDL-C, after administration [1]: 2.99 ± 0.13 | LDL-C, after administration [1]: 1.26 ± 0.22 | TC, after administration [1]: 7.42 ± 0.71 | TG, after administration [1]: 2.12 ± 0.43 | effect on TC, in comparison with the results before administration (in words) [1]: significantly decreases

solubility in water [2]: insoluble
SMILES: Cc1ccc(C(F)(F)c2ccc(OC(C)(C)C(=O)OC(C)C)cc2)cc1 [HS003-009, Isopropyl 2-(4-((4-methylphenyl)difluoromethyl)phenoxy)-2-methylpropionate]

solubility in water [2]: insoluble
SMILES: CC(C)OC(=O)C(C)(C)Oc1ccc(C(F)(F)c2cccc(Cl)c2)cc1 [HS003-011, Isopropyl 2-(4-((3-chlorophenyl)difluoromethyl)phenoxy)-2-methylpropionate]
blood lipid-regulating effects (conclusion from table 3) ([3]; 40 mg/kg): excellent blood lipid-regulating effects | HDL-C, after administration [3]: 1.93 ± 0.91 | LDL-C, after administration [3]: 2.21 ± 0.91 | TC, after administration [3]: 11.94 ± 2.71 | effect on HDL-C, in comparison with the results before administration (in words) [3, 4]: increase | effect on LDL-C, in comparison with the results before administration (in words) [3, 4]: significantly decreases | HDL-C, before administration [3]: 1.46 ± 0.16 | LDL-C, before administration [3]: 4.02 ± 1.34 | TC, before administration [3]: 13.91 ± 2.34

solubility in water [2]: insoluble
SMILES: Cc1cccc(C(F)(F)c2ccc(OC(C)(C)C(=O)OC(C)C)cc2)c1 [HS003-012, Isopropyl 2-(4-((3-methylphenyl)difluoromethyl)phenoxy)-2-methylpropionate]

SMILES: CC(C)OC(=O)C(C)(C)Oc1ccc(C(F)(F)c2cccc(C(F)(F)F)c2)cc1 [HS003-013, Isopropyl 2-(4-((3-trifluoromethylphenyl)difluoromethyl)phenoxy)-2-methylpropionate]
regulating effects on the levels of blood lipid (conclusion from table 2) [1]: tend to the effects of significantly decreasing TG, TC, and LDL-C | HDL-C, after administration [1]: 3.12 ± 0.25 | LDL-C, after administration [1]: 1.46 ± 0.46 | TC, after administration [1]: 8.93 ± 0.53 | TG, after administration [1]: 1.84 ± 0.45 | effect on TC, in comparison with the results before administration (in words) [1]: significantly decreases

solubility in water [2]: insoluble
SMILES: Cc1ccccc1C(F)(F)c1ccc(OC(C)(C)C(=O)OC(C)C)cc1 [HS003-015, Isopropyl 2-(4-((2-methylphenyl)difluoromethyl)phenoxy)-2-methylpropionate]
HDL-C, after administration [3]: 1.77 ± 0.18 | LDL-C, after administration [3]: 2.26 ± 1.03 | TC, after administration [3]: 15.3 ± 3.74 | effect on HDL-C, in comparison with the results before administration (in words) [3, 4]: significantly increases | HDL-C, before administration [3]: 1.54 ± 0.07 | LDL-C, before administration [3]: 3.14 ± 1.22 | TC, before administration [3]: 13.99 ± 2.3

SMILES: CC(C)OC(=O)C(C)(C)Oc1ccc(C(F)(F)c2ccccc2C(F)(F)F)cc1 [HS003-016, Isopropyl 2-(4-((2-trifluoromethylphenyl)difluoromethyl)phenoxy)-2-methylpropionate]
regulating effects on the levels of blood lipid (conclusion from table 2) [1]: tend to the effects of significantly decreasing TG, TC, and LDL-C | HDL-C, after administration [1]: 3.40 ± 0.32 | LDL-C, after administration [1]: 1.0 ± 0.23 | TC, after administration [1]: 8.44 ± 1.12 | TG, after administration [1]: 1.23 ± 0.42 | effect on TC, in comparison with the results before administration (in words) [1]: significantly decreases

SMILES: COC(=O)c1ccc(C(F)(F)c2ccc(OC(C)(C)C(=O)OC(C)C)cc2)cc1 [HS003-017, Isopropyl 2-(4-((4-methoxyacylphenyl)difluoromethyl)phenoxy)-2-methylpropionate]
regulating effects on the levels of blood lipid (conclusion from table 2) [1]: tend to the effect of significantly decreasing TG and increasing HDL-C | HDL-C, after administration [1]: 4.09 ± 0.18 | LDL-C, after administration [1]: 1.41 ± 0.34 | TC, after administration [1]: 11.61 ± 1.42 | TG, after administration [1]: 0.81 ± 0.15 | therapeutic effect compared with fenofibrate (conclusion from table 2) [1]: outstanding therapeutic effects on decreasing TG, and are significantly superior to fenofibrate | effect on TG, in comparison with the results before administration (in words) [1]: significantly decreases

solubility in water [2]: insoluble
SMILES: Cc1cc(OC(C)(C)C(=O)OC(C)C)ccc1C(F)(F)c1ccc(Cl)cc1 [HS003-019, Isopropyl 2-(4-((4-chlorophenyl)difluoromethyl)-3-methylphenoxy)-2-methylpropionate]
blood lipid-regulating effects (conclusion from table 3) ([3]; 40 mg/kg): excellent blood lipid-regulating effects | HDL-C, after administration [3]: 1.84 ± 0.21 | LDL-C, after administration [3]: 1.83 ± 0.56 | TC, after administration [3]: 10.62 ± 1.02 | therapeutic effect compared with fenofibrate (conclusion from table 3) ([3]; 40 mg/kg, fenofibrate 40 mg/kg): outstanding therapeutic effects, and are superior to fenofibrate | effect on LDL-C, in comparison with the results before administration (in words) [3, 4]: significantly decreases | effect on TC, in comparison with the results before administration (in words) [3, 4]: significantly decreases | HDL-C, before administration [3]: 1.67 ± 0.22 | LDL-C, before administration [3]: 3.12 ± 1.47 | TC, before administration [3]: 13.99 ± 2.28

SMILES: O=C(COc1ccc(C(F)(F)c2ccc(Cl)cc2)cc1)OCc1ccccc1 [HS003-021, Benzyl 2-(4-((4-chlorophenyl)difluoromethyl)phenoxy)-acetate]
regulating effects on the levels of blood lipid (conclusion from table 2) [1]: tend to the effect of significantly decreasing TG and increasing HDL-C | HDL-C, after administration [1]: 4.46 ± 0.23 | LDL-C, after administration [1]: 2.08 ± 0.89 | TC, after administration [1]: 13.37 ± 3.3 | TG, after administration [1]: 1.1 ± 0.53 | effect on HDL-C, in comparison with the results before administration (in words) [1]: significantly increases | effect on TG, in comparison with the results before administration (in words) [1]: significantly decreases

SMILES: CCOC(=O)CCCOc1ccc(C(F)(F)c2ccc(Cl)cc2)cc1 [HS003-026, Ethyl 4-(4-((4-chlorophenyl)difluoromethyl)phenoxy)butyrate]
regulating effects on the levels of blood lipid (conclusion from table 2) [1]: tend to the effect of significantly decreasing TG and increasing HDL-C | HDL-C, after administration [1]: 4.13 ± 0.32 | LDL-C, after administration [1]: 1.69 ± 0.47 | TC, after administration [1]: 11.18 ± 1.6 | TG, after administration [1]: 0.82 ± 0.24 | therapeutic effect compared with fenofibrate (conclusion from table 2) [1]: outstanding therapeutic effects on decreasing TG, and are significantly superior to fenofibrate | effect on HDL-C, in comparison with the results before administration (in words) [1]: significantly increases | effect on TG, in comparison with the results before administration (in words) [1]: significantly decreases

Reference: patent US9487470B2, “4-((substituted phenyl) difluoromethyl) phenoxy carboxylic acid derivative, and preparation method and uses thereof” (Zhejiang Hisun Pharmaceutical Co., Ltd., priority 2012, dated 2016)
